Laboratory results reported in US7056498B2, “Composition containing aminophenol derivative, use thereof, and process for dissolving aminophenol derivative” (L'Oreal, priority 1999, dated 2006).

Tests used:
Assay type in all cases: physicochemical
[1] = Storage stability of the compositions for two months (viscosity, colour, odour, HPLC content, crystals); conditions: two months at room temperature and at 45° C.
Protocol: After storage for two months at room temperature and at 45° C., no change in the viscosity or colour of the composition and no release of odour were observed.

[2] = Amount of aminophenol derivative dissolved in various solubilizing agents
Protocol: The amount of aminophenol derivative (N-ethyloxyearbonyl-4-para-aminophenol, or EPAP, and N-cholesteryloxyearbonyl-4-para-aminophenol, or CPAP) which can be dissolved in various solubilizing agents, at 60° C., was compared in Tables 1 and 2 below.

[3] = as above; conditions: in caprylic/capric triglycerides, at room temperature
[4] = in composition of Example 2 (fluid emulsion)
[5] = in composition of Example 3 (bleaching fluid)
[6] = in apricot kernel oil, at 60° C.
[7] = in mixture of oxyethylenated (26 EO) oxypropylenated (26 PO) butyl alcohol and oxyethylenated (40 EO) hydrogenated castor oil
[8] = in oxyethylenated (7 EO) hydrogenated castor oil, at 60° C.
[9] = in oxyethylenated (20 EO) oxypropylenated (5 PO) cetyl alcohol, at 60° C.
[10] = in oxyethylenated (20 EO) sorbitan monostearate, at 60° C.
[11] = in oxyethylenated (40 EO) hydrogenated castor oil, at 60° C.
[12] = in oxyethylenated (60 EO) hydrogenated castor oil, at 60° C.
[13] = in composition of Example 1 (fluid emulsion)

Amount dissolved ([2]; in Laureth-4, at 60° C.)	Amount dissolved [2, 6]	Amount dissolved ([2]; in hexyldecanol, at 60° C.)	Amount dissolved ([2]; in mineral oil, at 60° C.)	Amount dissolved [2, 7]	Amount dissolved ([2]; in octyldodecanol, at 60° C.)	Amount dissolved [2, 8]	Amount dissolved [2, 9]	Amount dissolved [2, 10]	Amount dissolved [2, 11]	Amount dissolved [2, 12]	SMILES	also measured
4.8%	insoluble	insoluble	insoluble	14.2%	0.5%	12.5%	14.2%	14.2%	16.5%	16.5%	CC(C)CCC[C@@H](C)[C@H]1CC[C@H]2[C@@H]3CC=C4C[C@@H](OC(=O)Nc5ccc(O)cc5)CC[C@]4(C)[C@H]3CC[C@]12C [CPAP, N-cholesteryloxycarbonyl-4-para-aminophenol]	Decrease in compound content, as determined by HPLC [1, 4]: no decrease; Formation of crystals of the compound [1, 4]: no formation of crystals; Decrease in compound content, as determined by HPLC [1, 5]: no decrease; Formation of crystals of the compound [1, 5]: no formation of crystals; Amount dissolved ([2]; in Laureth-23, at 60° C.): 4.8%; Amount dissolved ([2]; in caprylic/capric triglycerides, at 60° C.): 0.5%
25%	insoluble	insoluble	insoluble	20%	insoluble	16.6%	16.5%	50%	16.5%	16.5%	CCOC(=O)Nc1ccc(O)cc1 [EPAP, N-ethyloxycarbonyl-4-para-aminophenol]	Decrease in compound content, as determined by HPLC [1, 13]: no decrease; Formation of crystals of the compound [1, 13]: no formation of crystals; Recrystallization after dissolution [3]: recrystallizes; Amount dissolved ([2]; in caprylic/capric triglycerides, 80° C.): 4.7% (80° C.);; Amount dissolved ([2]; in mixture of oxyethylenated (9 EO) tridecyl alcohol and oxyethylenated (40 EO) hydrogenated castor oil): 25%
